What was measured:
[1] = target: T1, Cytochrome P450 1A2 (Homo sapiens, UniProt P05177); test: Inhibition of CYP1A2 (unknown origin); type: ADME
T1 sequence (P05177 whole entry): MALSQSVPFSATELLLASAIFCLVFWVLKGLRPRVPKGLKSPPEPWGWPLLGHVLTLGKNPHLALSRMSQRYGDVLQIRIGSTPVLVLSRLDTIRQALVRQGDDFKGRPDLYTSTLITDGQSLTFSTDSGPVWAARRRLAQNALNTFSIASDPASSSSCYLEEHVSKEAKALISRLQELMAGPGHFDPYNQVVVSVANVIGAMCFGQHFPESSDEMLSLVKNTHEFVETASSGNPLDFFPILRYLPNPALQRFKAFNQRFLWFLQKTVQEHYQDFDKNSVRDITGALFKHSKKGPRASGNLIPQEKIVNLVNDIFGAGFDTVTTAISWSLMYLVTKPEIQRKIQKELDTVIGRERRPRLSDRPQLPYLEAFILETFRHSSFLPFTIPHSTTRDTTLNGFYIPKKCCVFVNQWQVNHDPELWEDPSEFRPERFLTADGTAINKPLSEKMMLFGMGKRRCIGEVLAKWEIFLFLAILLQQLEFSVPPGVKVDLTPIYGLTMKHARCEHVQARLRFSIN

[2] = target: Cytochrome P450 2D6 (Homo sapiens, UniProt P10635); test: Inhibition of CYP2D6 (unknown origin); type: ADME
[3] = target: Cytochrome P450 2C19 (Homo sapiens, UniProt P33261); test: Inhibition of CYP2C19 (unknown origin); type: ADME
[4] = target: T2, 5-hydroxytryptamine receptor 3A (Homo sapiens) (UniProt P46098); test: Partial agonist activity at human 5-HT3A receptor expressed in HEK293 cells assessed as change in Ca2+ level measured as intrinsic activity at 1 uM relative to 5-HT in presence of carbachol; type: cell-based
T2 sequence (whole entry): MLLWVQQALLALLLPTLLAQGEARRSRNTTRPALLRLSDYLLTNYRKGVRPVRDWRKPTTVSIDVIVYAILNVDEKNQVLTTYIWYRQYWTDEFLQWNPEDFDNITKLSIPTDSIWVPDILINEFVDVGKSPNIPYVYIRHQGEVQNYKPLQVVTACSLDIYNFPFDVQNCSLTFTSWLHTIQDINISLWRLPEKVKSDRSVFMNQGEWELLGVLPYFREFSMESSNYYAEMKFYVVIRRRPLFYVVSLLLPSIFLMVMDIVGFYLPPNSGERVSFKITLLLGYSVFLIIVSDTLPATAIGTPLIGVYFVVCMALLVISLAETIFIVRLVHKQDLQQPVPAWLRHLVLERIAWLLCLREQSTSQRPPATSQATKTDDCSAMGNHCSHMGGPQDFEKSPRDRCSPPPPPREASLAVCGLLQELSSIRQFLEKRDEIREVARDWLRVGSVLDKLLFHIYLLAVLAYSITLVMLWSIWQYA

[5] = target: T3, 5-hydroxytryptamine receptor 3A (Homo sapiens, UniProt P46098); test: Displacement of [9-methyl-3H]BRL-43694 from human 5-HT3A receptor after overnight incubation by scintillation proximity assay
T3 sequence (P46098 whole entry): T2 sequence (whole entry)

[6] = target: T3, 5-hydroxytryptamine receptor 3A; test: Agonist activity at human 5-HT3A receptor expressed in HEK293 cells in presence of carbachol; type: cell-based
[7] = target: Cytochrome P450 2C9 (Homo sapiens, UniProt P11712); test: Inhibition of CYP2C9 (unknown origin); type: ADME
[8] = target: Cytochrome P450 3A4 (Homo sapiens, UniProt P08684); test: Inhibition of CYP3A4 (unknown origin); type: ADME
[9] = Intrinsic clearance in human liver microsomes; type: ADME; conditions: read-out: CLH
[10] = target: T4, Cytochrome P450 2B6 (Homo sapiens, UniProt P20813); test: Inhibition of CYP2B6 (unknown origin); type: ADME
T4 sequence (P20813 whole entry): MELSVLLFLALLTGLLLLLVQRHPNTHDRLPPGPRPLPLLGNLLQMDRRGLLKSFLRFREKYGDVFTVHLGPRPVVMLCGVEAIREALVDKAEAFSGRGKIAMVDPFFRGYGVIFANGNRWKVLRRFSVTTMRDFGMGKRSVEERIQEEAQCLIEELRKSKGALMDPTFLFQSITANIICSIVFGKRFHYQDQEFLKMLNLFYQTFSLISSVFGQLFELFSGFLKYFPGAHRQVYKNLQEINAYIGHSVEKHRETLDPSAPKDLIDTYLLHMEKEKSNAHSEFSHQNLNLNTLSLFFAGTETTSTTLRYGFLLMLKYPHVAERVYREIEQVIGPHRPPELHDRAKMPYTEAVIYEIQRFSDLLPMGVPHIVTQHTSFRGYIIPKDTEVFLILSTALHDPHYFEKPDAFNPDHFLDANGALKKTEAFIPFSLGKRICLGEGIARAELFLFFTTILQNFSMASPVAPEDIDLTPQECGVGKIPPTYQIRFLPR

[11] = target: T5, 5-hydroxytryptamine receptor 3A (Mus musculus) (UniProt P23979); test: Partial agonist activity at mouse 5-HT3A receptor expressed in HEK293 cells assessed as change in Ca2+ level measured as intrinsic activity at 1 uM relative to 5-HT in presence of carbachol; type: cell-based
T5 sequence (whole entry): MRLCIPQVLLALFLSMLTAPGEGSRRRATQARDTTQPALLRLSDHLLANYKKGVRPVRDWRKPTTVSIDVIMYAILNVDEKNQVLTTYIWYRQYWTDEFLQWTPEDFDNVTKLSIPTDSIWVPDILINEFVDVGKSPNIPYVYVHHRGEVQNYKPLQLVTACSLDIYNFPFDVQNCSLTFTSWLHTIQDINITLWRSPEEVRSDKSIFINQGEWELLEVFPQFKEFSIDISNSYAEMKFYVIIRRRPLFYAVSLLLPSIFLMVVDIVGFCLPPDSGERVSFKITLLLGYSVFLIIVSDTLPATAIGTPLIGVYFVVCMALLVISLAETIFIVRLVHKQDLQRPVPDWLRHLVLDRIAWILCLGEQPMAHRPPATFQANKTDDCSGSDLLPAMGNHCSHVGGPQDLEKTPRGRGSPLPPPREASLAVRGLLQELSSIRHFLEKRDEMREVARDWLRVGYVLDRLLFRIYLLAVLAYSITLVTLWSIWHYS

[12] = target: T6, 5-hydroxytryptamine receptor 3A (Mus musculus, UniProt P23979); test: Agonist activity at mouse 5-HT3A receptor expressed in HEK293 cells in presence of carbachol; type: cell-based
T6 sequence (P23979 whole entry): T5 sequence (whole entry)

[13] = test system: Mus musculus; test: Inhibition of 5-HT induced-bradycardia in ICR mouse von Bezold-Jarisch reflex model at 1 mg/kg, po after 60 mins relative to control; type: functional; conditions: 1 h
[14] = test system: Mus musculus; test: Inhibition of 5-HT induced-bradycardia in ICR mouse von Bezold-Jarisch reflex model at 3 mg/kg, po after 60 mins relative to control; type: functional; conditions: 1 h

Chain of Cytochrome P450 2C9 (P11712 whole entry): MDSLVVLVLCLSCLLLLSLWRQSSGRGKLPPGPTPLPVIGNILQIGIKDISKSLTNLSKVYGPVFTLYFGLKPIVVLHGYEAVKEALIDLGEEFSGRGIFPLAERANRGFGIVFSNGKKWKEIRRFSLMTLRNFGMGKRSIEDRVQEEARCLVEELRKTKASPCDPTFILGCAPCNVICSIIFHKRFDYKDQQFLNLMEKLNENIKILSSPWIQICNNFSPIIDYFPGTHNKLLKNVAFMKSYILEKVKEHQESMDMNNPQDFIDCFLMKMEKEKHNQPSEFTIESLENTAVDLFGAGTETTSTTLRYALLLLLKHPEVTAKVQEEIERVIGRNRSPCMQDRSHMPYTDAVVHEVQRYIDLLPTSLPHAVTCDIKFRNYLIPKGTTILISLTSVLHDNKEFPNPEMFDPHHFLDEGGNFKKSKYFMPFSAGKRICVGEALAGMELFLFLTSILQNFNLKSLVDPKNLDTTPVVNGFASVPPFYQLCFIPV
Chain of Cytochrome P450 2C19 (P33261 whole entry): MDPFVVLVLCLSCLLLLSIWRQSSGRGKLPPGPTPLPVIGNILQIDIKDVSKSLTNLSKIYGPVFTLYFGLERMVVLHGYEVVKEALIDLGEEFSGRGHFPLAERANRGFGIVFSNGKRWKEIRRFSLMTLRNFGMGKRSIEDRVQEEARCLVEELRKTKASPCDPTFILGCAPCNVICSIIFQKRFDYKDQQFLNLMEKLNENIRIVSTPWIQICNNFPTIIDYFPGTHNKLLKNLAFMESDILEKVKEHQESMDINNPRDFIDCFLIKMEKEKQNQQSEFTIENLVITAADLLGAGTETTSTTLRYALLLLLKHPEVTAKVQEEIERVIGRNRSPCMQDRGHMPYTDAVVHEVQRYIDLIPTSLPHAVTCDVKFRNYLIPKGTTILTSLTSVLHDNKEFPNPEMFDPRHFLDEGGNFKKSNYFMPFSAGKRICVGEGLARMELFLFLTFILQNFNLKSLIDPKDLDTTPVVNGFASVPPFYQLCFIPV
Chain of Cytochrome P450 3A4 (P08684 whole entry): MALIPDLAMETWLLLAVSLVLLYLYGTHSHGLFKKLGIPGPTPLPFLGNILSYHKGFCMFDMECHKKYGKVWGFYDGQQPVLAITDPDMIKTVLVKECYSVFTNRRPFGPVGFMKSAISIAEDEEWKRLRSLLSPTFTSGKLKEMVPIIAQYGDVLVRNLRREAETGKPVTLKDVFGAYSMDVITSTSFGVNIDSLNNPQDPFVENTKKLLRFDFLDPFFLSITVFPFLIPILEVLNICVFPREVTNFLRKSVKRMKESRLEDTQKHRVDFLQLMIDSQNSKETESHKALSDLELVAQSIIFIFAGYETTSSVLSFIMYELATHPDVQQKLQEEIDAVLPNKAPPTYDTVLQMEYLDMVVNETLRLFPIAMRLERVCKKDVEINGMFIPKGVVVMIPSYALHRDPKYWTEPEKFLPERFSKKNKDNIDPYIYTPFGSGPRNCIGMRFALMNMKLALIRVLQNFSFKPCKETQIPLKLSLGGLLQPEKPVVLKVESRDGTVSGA
Chain of Cytochrome P450 2D6 (P10635 whole entry): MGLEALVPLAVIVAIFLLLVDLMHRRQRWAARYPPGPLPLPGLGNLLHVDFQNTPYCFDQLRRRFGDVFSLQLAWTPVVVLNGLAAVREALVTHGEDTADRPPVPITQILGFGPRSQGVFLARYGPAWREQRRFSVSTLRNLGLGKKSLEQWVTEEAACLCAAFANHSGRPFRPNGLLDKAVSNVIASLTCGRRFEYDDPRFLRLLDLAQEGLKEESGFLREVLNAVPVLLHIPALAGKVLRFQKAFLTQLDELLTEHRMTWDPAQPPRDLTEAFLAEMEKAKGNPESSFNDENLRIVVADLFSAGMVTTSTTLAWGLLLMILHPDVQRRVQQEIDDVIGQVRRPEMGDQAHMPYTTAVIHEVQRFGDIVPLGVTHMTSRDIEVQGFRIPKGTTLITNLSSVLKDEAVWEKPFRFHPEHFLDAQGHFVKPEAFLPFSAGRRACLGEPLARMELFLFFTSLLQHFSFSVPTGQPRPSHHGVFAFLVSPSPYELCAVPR

Row | Structure (SMILES) | IC50 [1] [µM] | IC50 [2] [µM] | IC50 [3] [µM] | Activity [4] [%] | Ki [5] [µM] | EC50 [6] [µM] | IC50 [7] [µM] | IC50 [8] [µM] | microsomal CLint [9] [µL/min/mg] | IC50 [10] [µM] | Activity [11] [%] | EC50 [12] [µM] | inhibition in vivo at 1 mg/kg [13] [%] | inhibition in vivo at 3 mg/kg [14] [%]
1 | O=C1c2cccc3[nH]c(=O)n(c23)CCN1[C@@H]1CN2CCC1CC2 | > 50 | > 50 | > 50 | 83 | 0.0057 | 0.178 | > 50 | > 50 | 8.4 | > 50 | – | – | – | –
2 | Cc1cc2c3c(cnn3CCN([C@@H]3CN4CCC3CC4)C2=O)c1 | – | – | – | – | 0.0008 | – | – | – | – | – | – | – | – | –
3 | Cc1cn2c3c(cc(Cl)cc13)C(=O)N([C@@H]1CN3CCC1CC3)CC2 | 8.8 | – | – | – | – | – | – | – | 2.3 | – | – | – | – | –
4 | COc1cc2c3c(cnn3CCN([C@@H]3CN4CCC3CC4)C2=O)c1 | > 50 | > 50 | > 50 | 87 | 0.0135 | 0.178 | > 50 | > 50 | 1.8 | > 50 | 81 | 0.178 | – | –
5 | Cc1[nH]cnc1CN1CCc2c(c3ccccc3n2C)C1=O [ALOSETRON] | – | – | – | – | – | – | – | – | 3 | – | – | – | 95 | –
6 | O=C1c2cc(F)cc3cnn(c23)CCN1[C@@H]1CN2CCC1CC2 | > 50 | > 50 | > 50 | 30 | 0.0064 | 0.178 | > 50 | > 50 | 8.8 | > 50 | 31 | 0.178 | – | –
7 | O=C1c2cccc3cnn(c23)CCN1[C@@H]1CN2CCC1CC2 | > 50 | > 50 | > 50 | 19 | 0.0081 | 0.178 | > 50 | > 50 | < 1.7 | > 50 | 16 | 0.178 | – | 77
8 | O=C1c2cccc3ccn(c23)CCN1[C@@H]1CN2CCC1CC2 | > 50 | > 50 | > 50 | 7 | 0.0031 | 0.178 | > 50 | > 50 | < 1.7 | > 50 | – | – | – | –
9 | O=C1c2cc(Cl)cc3cnn(c23)CCN1[C@@H]1CN2CCC1CC2 | > 50 | > 50 | > 50 | 28 | – | 0.178 | > 50 | > 50 | 3.1 | > 50 | 27 | 0.178 | – | –
10 | O=C1c2cccc3ccn(c23)CCN1[C@H]1CN2CCC1CC2 | – | – | – | – | 0.0676 | – | – | – | – | – | – | – | – | –

Reference: ChEMBL document CHEMBL3259590, “The discovery of diazepinone-based 5-HT3 receptor partial agonists” (Bioorg Med Chem Lett, 2014)
